# Results reported in patent US20160030365A1, “PHARMACEUTICAL OR COSMETIC COMPOSITION SUITABLE TO PRESERVE EPITHELIAL STEM CELLS” (GIULIANI S.P.A., priority 2013, published 2016).
# Tested on: keratin K15 (cytokeratin 15, CK15) of human epithelial hair follicle stem cells
# Assay: Quantitative immunohistochemistry for keratin K15 in organ-cultured human hair follicles
# Assay type: cell-based
# Settings: for relative intensity of immunohistochemistry of keratin K15: microdissected human anagen VI hair follicles in organ culture, 6 days, relative intensity of the vehicle=1
# From the text: The scope of the study is to determine the effects of N^1-methyl spermidine, a compound of formula (I) of this invention, on the biomarker keratin K15 (cytokeratin 15, CK15) of human epithelial hair follicle stem cells (heHFSCs). As reference on this point in the literature we can quote Kloepper JE et al. (2008), Immunophenotyping of the human bulge region: the quest to define useful in situ markers for human epithelial hair follicle stem cells and their niche. Exp Dermatol 17: 592-609.
# Scalp samples were collected from two women who were submitted to surgical lifting, after obtaining their informed consent. Experiments were performed in compliance with the Helsinki principles, with the Ethics Committee's approval. Details of samples are described in Table 1 below.
# J Dermatol Sci 7: SuppIS 55-72.
# N^1-methyl-spermidine of the invention or spermidine or the vehicle were changed every 48 hours with the culture medium. A summary of the study procedure is presented in Table 2 below, in which N^1-methyl spermidine, the compound of formula (II) of this invention, used in the test at concentrations of 0.5 and 1.5 μM is the active substance', while spermidine was used as a control at the concentration of 0.5 μM.
# The tyramide signal amplification method was used to assess the expression of keratin K15, as described in the abovementioned paper by Kloepper et al. (2008). The cryosections fixed in acetone were washed thrice for 5 minutes using the buffer (0.1 mol/L Tris-HCl, pH 7.5, containing 0.15 mol/L NaCl and 0.05% Tween 20) TNT (Tris-HCl NaCl Tween). Later, peroxidase was inhibited by washing with 3% H2O2 in phosphate buffered saline (PBS) for 15 min. Preincubation was performed with avidin and biotin for 15 minutes, and with 5% normal goat serum in TNT for 30 minutes with intermediate lavage. The Mouse Anti-Human K15 antibody (clone LHK15, Chemicon, Billerica, USA) was diluted in TNT and incubated for one night at 4° C. This incubation period was followed by a second incubation period with a secondary biotinylated Goat Anti-Mouse antibody (1:200 in TNT) for 45 minutes in RT. […] Immunohistochemistry intensity was quantified with the ImageJ software (National Institutes of Health). Stain intensity of the defined reference regions of the follicle was measured and compared between the control groups and groups treated with N^1-methyl spermidine at the concentrations of 0.5 and 1.5 μM, or with spermidine 0.5 μM. • Statistical Analysis
# The statistical analysis was performed using a two tailed Student t-test for samples that were not coupled. To group the two experiments, each treatment group was compared with the control group (mean value), and the relative variation in expression was calculated.
Compound,relative intensity of immunohistochemistry of keratin K15 (0.5 μM),inductive effect towards keratin K15 compared with an equal concentration of spermidine (0.5 μM vs spermidine 0.5 μM),relative intensity of immunohistochemistry of keratin K15 (1.5 μM)
"NCCCCNCCCN [spermidine, reference compound]",1.12,,
"CN(CCCN)CCCCN [N^1-methyl spermidine, N-(3-aminopropyl)-N^1-methyl-1,4-butandiamine]",1.739,higher than that of an equal concentration of 0.5 μM of spermidine,1.806
